Data published in the supplement of paper PMC10307832.

Experiments:
Assay in all cases: relative viability (nuclei count vs DMSO), 5 days (fraction); higher = more cells survive
Pazopanib = compound: Cc1ccc(Nc2nccc(N(C)c3ccc4c(C)n(C)nc4c3)n2)cc1S(N)(=O)=O [Pazopanib]
Outline: (§1)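 Only plates meeting two conditions passed: control CV below 25% and at least one doubling. Lung cancer cell lines, kept overnight at 37 °C in 1536-well plates, were pinned with five library-drug doses (not always all listed) √10 apart on vehicle-anchored plates and grown 5 days without medium change. A one-step fix, permeabilisation and Hoechst stain preceded 4× imaging and MetaXpress nuclear counting. Viability equals treated-well nuclei divided by vehicle-well nuclei, as the median over plates.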

Ponatinib = compound: Cc1ccc(C(=O)Nc2ccc(CN3CCN(C)CC3)c(C(F)(F)F)c2)cc1C#Cc1cnc2cccnn12 [Ponatinib]
Outline: as §1

Ponatinib + Alpelisib = compound: Cc1ccc(C(=O)Nc2ccc(CN3CCN(C)CC3)c(C(F)(F)F)c2)cc1C#Cc1cnc2cccnn12 [Ponatinib] + Cc1nc(NC(=O)N2CCC[C@H]2C(N)=O)sc1-c1ccnc(C(C)(C)C(F)(F)F)c1 [Alpelisib] (partner 2 µM)
Outline: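 Each reported value is a median over duplicate plates. It expresses relative viability: treated-well nuclei count divided by vehicle-well nuclei count. Lung cancer cell lines in 1536-well plates were dosed by pin tool a day after seeding, alone with one drug or with a fixed anchor-drug dose plus five library-drug doses (not always all listed) in √10 steps, and nuclei were counted after 5 days.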

Cell Line: UMC-11
- relative viability (Pazopanib; 0.01 µM): 0.828
- relative viability (Pazopanib; 0.03162 µM): 1.01
- relative viability (Pazopanib; 0.1 µM): 1.01
- relative viability (Pazopanib; 0.3162 µM): 1.03
- relative viability (Pazopanib; 1 µM): 1.11
- relative viability (Ponatinib; 0.002 µM): 0.914
- relative viability (Ponatinib; 0.006325 µM): 0.945
- relative viability (Ponatinib; 0.06325 µM): 1.07
- relative viability (Ponatinib; 0.2 µM): 0.99
- relative viability (Ponatinib + Alpelisib; first compound 0.002 µM): 1.07
- relative viability (Ponatinib + Alpelisib; first compound 0.006325 µM): 1.04
- relative viability (Ponatinib + Alpelisib; first compound 0.06325 µM): 1.01
- relative viability (Ponatinib + Alpelisib; first compound 0.2 µM): 0.951
